{
  "source": "patent US8729024B2",
  "about": "“Targeted delivery of pharmaceutical compounds” (The Resesarch Foundation of State University of New York, priority 2006, dated 2014)",
  "origin": "cited, not measured here",
  "tested_on": "animal models of Duchenne muscular dystrophy (DMD), multiple sclerosis, myasthenia gravis, hearing loss and traumatic nerve injury",
  "data": [
    {"compound": "CC(=O)N[C@@H](CC(C)C)C(=O)N[C@@H](CC(C)C)C(=O)N[C@H](C=O)CCCNC(=N)N", "note": "[leupeptin]", "values": [
      {"measurement": "therapeutic effect in animal models", "result": "therapeutic benefit"}
    ]}
  ]
}
